The results in this text go back to PMC6332026, “Synthesis and Pharmacochemistry of New Pleiotropic Pyrrolyl Derivatives” (Molecules, 2015).

In general, melting point refers to the temperature, or range, at which the solid turns liquid. In general, inhibition refers to the percentage by which the read-out fell short of the control. As a reminder, the IC50 is the concentration needed to halve the response being measured.

SMILES strings stand for the structures. Marks after values point to notes of the source that are not given here.

Data set [1] concerns carrageenan-induced rat paw edema. In words: Inhibition of rat paw edema induced by carrageenan. The class given is in vivo, Fischer 344 rats. Conditions: 0.01 mmol/kg body weight, intraperitoneally, 3.5 h; for inhibition in vivo at 10 µmol/kg: Rattus norvegicus, ip, read-out: CPE % inhibition of rat paw edema induced by carrageenan. The protocol: The pyrrolyl derivatives, as well as their precursor chalcones were tested in vivo for the inhibition of rat paw edema induced by carrageenan. […] […]. For Compounds 2i, 2iii, 2iv and 2v, we determined their ED50 values. […]. The finding supports the primary idea of this design.
Edema was induced in the right hind paw of Fischer 344 rats (150–200 g). In the study, both males and females were included, with the exemption of pregnant females. The animals, which have been bred in our laboratory, were housed under standard conditions and received a diet of commercial food pellets and water ad libitum during maintenance. One hour before the onset of the experiment, food and water were removed. The tested compounds (dose 0.01 mmol/kg body weight) were diluted in water with a few drops of Tween 80, and they were administered intraperitoneally simultaneously with the intradermal injection of 0.1 mL 2% of carrageenan in water. The animals were euthanatized 3.5 h after the carrageenan administration. The difference between the weight of injected and uninjected paws was calculated for each animal and was compared to control animals, which were treated with water. Indomethacin was used as a reference compound in 0.01 mmol/kg. The results were expressed as the percent inhibition of the edema (CPE %).

The nature of data set [2]: Interaction with the stable free radical DPPH (reducing activity). Conditions: for RA % (interaction with DPPH): DPPH 50 μM; for interaction with DPPH: 10 μM compound. The protocol:
2,2-Diphenyl-1-picrylhydrazyl (DPPH) is a lipophilic, free, stable radical, which absorbs at 517 nm (violet color). Upon reduction, decolorization is observed that is stoichiometric to the number of received electrons and is representative of the antioxidant ability of compounds. […] This interaction, which indicates their radical scavenging ability in an iron-free system, was measured at 100 and 1000 μM after 20 and 60 min, whereas the final concentration of DPPH was stable at 50 μΜ.
[…] The absorbance was measured at 517 nm after 20 and 60 min at room temperature.
(In general: Loss of DPPH colour is used to gauge radical scavenging.)

Data set [3] in a line: Lipophilicity as RM values by reverse-phase thin layer chromatography (RPTLC). The format is physicochemical. Conditions: methanol/water 75/25 v/v with ammonia drops. An excerpt: Since lipophilicity is a significant physicochemical property determining the absorption, distribution, metabolism and excretion properties (ADME) of drugs, we attempted to determine experimentally the lipophilicity as RM values with reverse-phase thin layer chromatography (RPTLC). Lipophilicity was also theoretically calculated as Clog P values. According to the calculated Clog P values, the most lipophilic compounds were 2iii (6.37) and 2v (6.04). However, this observation was not supported by the RM values, since Compound 2iii presented very low lipophilicity (−0.061). Furthermore, the lipophilicity of Compound 2v could not be determined experimentally under the reported conditions. Attempts to correlate Clog P and RM values failed. From our results (Table 2), it can be concluded that RM values could not be used as a successful relative measure of the overall lipophilic/hydrophilic properties of these molecules. Tentatively, this can be attributed to the different nature of the hydrophilic and lipophilic phases in the two systems. Clog P refers to n-octanol/water, whereas RM in this case refers to methanol/water. Moreover, it is likely that pyrrole derivatives form hydrogen bonds within the hydrophilic phase.
Reverse-phase thin layer chromatography (RPTLC) was used for the determination of RM values. Silica gel plates were saturated with 5% v/v liquid paraffin in petroleum ether, and the mobile phase was methanol/water (75/25 v/v) with the addition of ammonia drops. Spots were detected under UV light. RM values were determined by the corresponding Rf values (from five measurements for each compound) using the equation [43]: RM = log[(1/Rf) − 1](1)

Data set [4] in a line: Inhibition of heme-dependent lipid peroxidation of linoleic acid (TBA method). Conditions: pH 7.4, 37 °C. On the procedure: The anti-lipid peroxidation activity was determined through the inhibition of heme-dependent lipid peroxidation. The peroxidation of sodium linoleate is induced from a mixture of heme and hydrogen peroxide, which produces free radicals from the side chains of amino acids. The assay is performed at pH 7.4 with a phosphate buffer, and the products of peroxidation are identified with the thiobarbituric acid method (TBA). In particular, malonic dialdehyde, a final product of lipid peroxidation, reacts with TBA and forms a colored product, whose absorbance is measured at 535 nm. […] Compounds 2ii and 2vi with low Clog P values are weak inhibitors of lipid peroxidation. It seems that the increase of volume of Ar^1, measured as molar refractivity MR (Ar^1), enhances IC50 values and reduces the inhibitory activity (2i and 2iii; and 2ii, 2iv and 2vi). For derivatives 2iv and 2v, the presence of an electron-acceptor, e.g., a chloro-substituent on the phenyl ring (Ar^2), diminishes the anti-lipid peroxidation activity.
Firstly, 0.4 mL of heme (50 μΜ), 0.25 mL of sodium linoleate (400 μΜ), 0.1 mL of the solutions of the tested compounds (concentrations varying from 10–100 μΜ in DMSO) and 0.25 mL of H2O2 (500 μΜ) were incubated for 10 min in 37 °C in a phosphate buffer (KH2PO4–KOH 50 mM, pH 7.4). The peroxidation products were identified with the reaction of thiobarbituric acid, by adding successively 0.5 mL of 40% trichloroacetic acid (TCA) and 0.5 mL of 2% of thiobarbituric acid (TBA). The addition was followed by stirring and heating at 90 °C for 20 min, and then, 1 mL of acetic acid and 1 mL of chloroform were added and the absorbance measured at 535 nm. IC50 values were determined.

The next data set concerns the target T1, COX-2 (Homo sapiens, UniProt P35354).
T1 sequence (P35354 18-604): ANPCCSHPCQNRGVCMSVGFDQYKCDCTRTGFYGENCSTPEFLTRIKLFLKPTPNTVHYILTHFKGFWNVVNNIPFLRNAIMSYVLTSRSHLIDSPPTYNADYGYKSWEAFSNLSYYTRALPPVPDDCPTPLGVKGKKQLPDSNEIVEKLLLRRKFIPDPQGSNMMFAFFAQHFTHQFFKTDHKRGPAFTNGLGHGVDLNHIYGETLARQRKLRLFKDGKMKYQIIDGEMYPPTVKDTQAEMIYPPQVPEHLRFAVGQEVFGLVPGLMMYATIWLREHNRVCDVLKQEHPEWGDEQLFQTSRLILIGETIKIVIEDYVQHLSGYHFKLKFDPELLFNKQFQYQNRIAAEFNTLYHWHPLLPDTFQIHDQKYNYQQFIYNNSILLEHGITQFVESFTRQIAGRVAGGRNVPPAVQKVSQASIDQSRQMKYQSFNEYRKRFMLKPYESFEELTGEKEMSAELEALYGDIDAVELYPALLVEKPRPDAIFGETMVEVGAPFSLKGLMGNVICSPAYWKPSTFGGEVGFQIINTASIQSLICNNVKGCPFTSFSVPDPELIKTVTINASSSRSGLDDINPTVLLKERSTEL
In words: Inhibition of cycloxygenase-2 (colorimetric TMPD assay).

The nature of data set [5]: Superoxide radical scavenging activity (non-enzymatic, PMS/NADH, NBT method). Conditions: 100 μM. The text has this: Superoxide anion radical is an active form of oxygen, and it is the product of the one-electron reduction of […] oxygen. Herein, superoxide radicals were formed by mixing phenazine methosulfate (PMS) with NADH and air-oxygen. The production of radicals was estimated with the nitroblue-tetrazolium method (NBT). From the tested pyrroles, Compounds 2i and 2iii were equipotent (57%) scavengers. […] In contrast, the dipole moment appeared to be important. The values of the dipole, as calculated by the program Spartan v.5.1.3.
The superoxide anion radicals were produced non-enzymatically by mixing phenazine methosulfate (PMS) with NADH and air-oxygen. The production of superoxide radicals was estimated with the nitroblue-tetrazolium (NBT) method with 3 μΜ PMS, 78 μΜ NADH and 25 μΜ NBT in 19 μΜ phosphate buffer pH 7.4. The absorbance was measured at 560 nm at room temperature. The tested compounds were added in the mixture 2 min before the addition of NADH [52].

A further data set concerns the target T2, interleukin-6 (IL-6) (Mus musculus, UniProt P08505).
T2 construct: purchased Cayman Item No. 583371
T2 sequence (P08505 25-211): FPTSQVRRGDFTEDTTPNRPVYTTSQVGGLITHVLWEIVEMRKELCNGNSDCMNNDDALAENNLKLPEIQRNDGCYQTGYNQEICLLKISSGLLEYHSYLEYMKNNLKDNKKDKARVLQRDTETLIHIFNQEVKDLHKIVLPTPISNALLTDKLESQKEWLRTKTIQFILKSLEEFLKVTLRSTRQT
In words: Inhibition of interleukin-6 (immunometric double antibody sandwich EIA). The format is biochemical. Conditions: compound 10 μM; IL-6 1500 pg/mL. On the procedure: The assay used for the inhibition of IL-6 is based on an immunometric double antibody method (sandwich technique). […] Both compounds gave satisfactory biological responses, both in high and in low concentrations of IL-6 (Table 8).
The method was based on an immunometric double antibody sandwich technique. Each well of the microwell plate was coated with a specific for mouse IL-6 rat monoclonal antibody. Tested compounds at 10 μΜ and standards were incubated in the wells, and after rinsing, a second monoclonal antibody was added, which was conjugated with biotin and detected the captured IL-6. The recognition of double antibody sandwiches was done with HRP-conjugated streptavidin. The concentration of IL-6 was determined by measuring the enzymatic activity of HRP using the chromogenic substrate TMB (3,3′,5,5′-tetramethylbenzidine). The absorbance of the reaction product was measured at 450 nm, and the intensity of the color was directly proportional to the amount of bound HRP-streptavidin conjugate, which was proportional to the concentration of IL-6.

Procedure for COX-2: The inhibition of COX-2, as a peroxidase, was determined by a colorimetric assay with the oxidation of N,N,N′,N′-tetramethyl-p-phenylenediamine (TMPD).
COX-2 inhibitory activity was determined by using arachidonic acid (AA) as a substrate in buffer (0.1 M Tris pH 8.5) and TMPD as a co-substrate.

With `O=C(C=Cc1cccc2ccccc12)c1ccc(Cl)cc1` [Compound 1v, 3-(Naphth-1-yl)-1-(4-chloro)phenylprop-2-en-1-one], in data set [1], the “CPE % inhibition of rat paw edema induced by carrageenan” value is 44 ^d %.

Take `O=C(C=Cc1ccc2[nH]ccc2c1)c1ccccc1` [Compound 1vi, 3-(1H-Indol-5-yl)-1-phenylprop-2-en-1-one]: the inhibition in vivo at 10 µmol/kg in data set [1] came out at 42%.

`O=C(C=Cc1ccc(OCc2ccc(Br)cc2)cc1)c1cccs1` [Compound 1iii, 3-{4-[(4-Bromobenzyl)oxy]phenyl}-1-(thien-2-yl)prop-2-en-1-one] displayed a melting point of 141 to 143 °C. In addition, the inhibition in vivo at 10 µmol/kg in data set [1] came to 86%.

Consider `CN(C)c1ccc(C=CC=CC(=O)c2ccccc2)cc1` [Compound 1ii, 5-[4-(Dimethylamino)phenyl]-1-phenylpenta-2,4-dien-1-one], for which the “RA % (interaction with DPPH)” value in data set [2] (100 μM compound, 20 min) is recorded as 31%; in data set [2] (100 μM compound, 60 min), 13%; in data set [2] (1000 μM compound, 20 min), 38%; in data set [2] (1000 μM compound, 60 min), 42%. In addition, in data set [1], the inhibition in vivo at 10 µmol/kg was 69%.

In the case of `O=C(C=Cc1cccc2ccccc12)c1ccccc1` [Compound 1iv, 3-(Naphth-1-yl)-1-phenylprop-2-en-1-one], the inhibition in vivo at 10 µmol/kg in data set [1] is 40%.

On to `CN(C)c1ccc(/C=C/c2c[nH]cc2C(=O)c2ccccc2)cc1` [Compound 2ii, (E)-{4-[4-(Dimethylamino)styryl]-1H-pyrrol-3-yl}(phenyl)methanone], for which the melting point fell in the range of 219 to 220 °C. The molecule further gave an RM in data set [3] of 0.073. For the same molecule, the “interaction with DPPH” value in data set [2] (20 min) is on record as 35%. In addition, in data set [2] (60 min), the “interaction with DPPH” value turned out to be 40%. In addition, the “RA % (interaction with DPPH)” value in data set [2] (100 μM compound, 20 min) came to 86%. In addition, the “RA % (interaction with DPPH)” value in data set [2] (100 μM compound, 60 min) was determined as 88%. Also, the “RA % (interaction with DPPH)” value in data set [2] (1000 μM compound, 20 min) came to 99%. In addition, in data set [2] (1000 μM compound, 60 min), the “RA % (interaction with DPPH)” value is given as 96%. Besides, the “LP IC50 (inhibition of heme-dependent lipid peroxidation of linoleic acid)” value in data set [4] is “inactive”. The inhibition in vivo at 10 µmol/kg in data set [1] turned out to be 89%. The inhibition at 100 µM at COX-2 (read-out: COX-2 % inhibition) came to 47%.

For `O=C(c1ccccc1)c1c[nH]cc1-c1ccc2[nH]ccc2c1` [Compound 2vi, [4-(1H-Indol-5-yl)-1H-pyrrol-3-yl](phenyl)methanone], the melting point fell in the range of 247 to 248 °C. This molecule also gave an RM in data set [3] of −0.685. Also, the “O2^•− % superoxide radical scavenging activity” value in data set [5] is on record as 86%. In addition, the “LP IC50 (inhibition of heme-dependent lipid peroxidation of linoleic acid)” value in data set [4] is “inactive”. Moreover, on COX-2 (100 μM), the COX-2 % inhibition entry was “inactive”.

Molecule `O=C(C=Cc1cccc(Oc2ccccc2)c1)c1cccs1` [Compound 1i, 3-(3-Phenoxyphenyl)-1-(thien-2-yl)prop-2-en-1-one] gave a melting point of 48 to 50 °C. Also, the “RA % (interaction with DPPH)” value in data set [2] (100 μM compound, 20 min) worked out at 43%. Moreover, the “RA % (interaction with DPPH)” value in data set [2] (100 μM compound, 60 min) is 2%. Further, the “RA % (interaction with DPPH)” value in data set [2] (1000 μM compound, 20 min) is recorded as 5%. In addition, the inhibition in vivo at 10 µmol/kg in data set [1] stood at 41%.

Regarding `CC(Cc1ccc(O)c(O)c1)C(C)Cc1ccc(O)c(O)c1` (stereo not drawn) [NDGA, nordihydroguaiaretic acid, reference compound], the “RA % (interaction with DPPH)” value is recorded as 81% in data set [2] (100 μM compound, 20 min); 83% in data set [2] (100 μM compound, 60 min); 96% in data set [2] (1000 μM compound, 20 min); 96% in data set [2] (1000 μM compound, 60 min).

Consider `O=C(O)/C=C/c1ccc(O)c(O)c1` [Caffeic acid, reference compound], for which the “O2^•− % superoxide radical scavenging activity” value in data set [5] is reported as 86.1%. Further, the IC50 in data set [4] (read-out: LP IC50 (inhibition of heme-dependent lipid peroxidation of linoleic acid)) turned out to be 6 µM.

On to `COc1ccc2c(c1)c(CC(=O)O)c(C)n2C(=O)c1ccc(Cl)cc1` [Indomethacin, reference compound], for which testing at 10 µM at interleukin-6 (IL-6) gave an inhibition of 100%. For the same molecule, the inhibition in vivo at 10 µmol/kg in data set [1] was determined as 53%.
